We go through 18 compounds from patent US20170290821A1 (priority 2014, published 2017).

Data set [1] concerns HEK293 cells or A549 cells. Kind of data set: Cell viability with inhibitors (CellTiter-Glo, Example 2), cell line not specified. The settings on record: for cell viability: 48 hours. The format is cell-based, human. A general note: ATP-based viability assays read luminescence as a measure of living cells.
Procedure: Specifically, HEK293 cells or A549 cells were infected with an influenza virus with an MOI of 0.001. Cells 1 hour after the infection were washed and then cultured in a culture solution containing inhibitors, a DMSO solution (final concentration: 1 volume %) was used as a control instead of the inhibitors. […] In addition, a cell viability (%) was calculated using a CellTiter-Glo assay system (commercially available from Promega Corporation) according to the appended instructions. The number of cells cultured in a medium containing the inhibitors with respect to the number of living cells in cells cultured in a medium containing the control (the DMSO solution) was calculated as the cell viability (%).
The subject of the next data set is influenza virus. The format is cell-based.
In data set [2] the test system is A549 cells. Kind of data set: Cell viability with inhibitors (CellTiter-Glo, Example 2), A549. The settings on record: 0.2 μM.
Procedure: (§3) In addition, a cell viability (%) was calculated using a CellTiter-Glo assay system (commercially available from Promega Corporation) according to the appended instructions. The number of cells cultured in a medium containing the inhibitors with respect to the number of living cells in cells cultured in a medium containing the control (the DMSO solution) was calculated as the cell viability (%).
For data set [3], the target named is T1, adenine nucleotide transporter (ANT) (Homo sapiens, UniProt P05141).
T1 sequence (P05141 1-298): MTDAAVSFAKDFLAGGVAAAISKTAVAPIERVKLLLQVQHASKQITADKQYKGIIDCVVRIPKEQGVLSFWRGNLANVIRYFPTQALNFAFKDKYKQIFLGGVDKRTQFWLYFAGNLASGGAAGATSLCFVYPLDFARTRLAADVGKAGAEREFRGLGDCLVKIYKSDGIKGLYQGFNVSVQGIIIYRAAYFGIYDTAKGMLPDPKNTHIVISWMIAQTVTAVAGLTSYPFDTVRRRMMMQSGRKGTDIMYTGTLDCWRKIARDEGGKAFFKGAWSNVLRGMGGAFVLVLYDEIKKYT
The settings on record: cited from earlier work.

The test system of data set [4] is A549 cells.
Procedure: as §3
The nature of data set [5]: Cytotoxicity test (Cell Counting Kit-8), A549. The format is cell-based. To be noted: human, A549 cells, read-out: CC50 (50% cytotoxicity concentration) (converted). Background: Formazan colour is commonly taken as a measure of viable cells.
A short description of data set [6]: Cytotoxicity test (Cell Counting Kit-8), HEK293. The format is cell-based, human. The settings on record: human, 293 (HEK293) cells, read-out: CC50 (50% cytotoxicity concentration) (converted). The procedure: (§1) First, as test compound solutions, test compounds were prepared in 1% dimethylsulfoxide-containing MEMs so that a final concentration was 1000, 100, 10, 1, 0.1, 0.01, or 0.001 μM.
(§2) Cell fluids in which MDCK cells, A549 cells, and HEK293 cells were prepared at concentrations of 6.25×10^5 cells/mL, 2.5×10^6 cells/mL, and 1.25×10^5 cells/mL in minimum essential mediums (MEMs) were added to a 96-well plate at 0.1 ml/well and the cells were seeded. The cells in the 96-well plate were cultured in a carbon dioxide incubator at 37° C. and washed with MEM the day after the seeding date. In the washed cells in the 96-well plate, 0.1 mL of each test compound solution was added to three wells for each concentration and the cells in the 96-well plate were then cultured in a carbon dioxide incubator at 37° C. for 48 hours. After the culture, a Cell Counting Kit-8 solution (commercially available from Dojindo Molecular Technologies, Inc.) was added to each well at 10 μL and culture was additionally performed at 37° C. for several hours. After the culture, an absorbance at 450 nm of a solution of each well in the 96-well plate was measured using a microplate reader. An absorbance value when a solvent (1% dimethylsulfoxide-containing MEM) was added in place of the test compound was set to 100% at which the whole cells survived. A final concentration value of the test compound when an absorbance was 50% was calculated as a 50% cytotoxicity concentration (CC50 value).

The test system of a further data set is HEK293 cells. Put plainly: Cytotoxicity test (Cell Counting Kit-8), HEK293. The format is cell-based, human. The settings on record: 293 (HEK293) cells, 48 hours. The procedure:
as §1, §2

Data set [7] can be described thus: Cytotoxicity test (Cell Counting Kit-8), MDCK. The format is cell-based, canine. To be noted: dog, MDCK cells, read-out: CC50 (50% cytotoxicity concentration) (converted). The procedure:
as §1
as §2, with “A final concentration value of the test compound when an absorbance was 50% was calculated as a 50% cytotoxicity concentration (CC50 value).” left out

Counter-ions that a name gives are not always drawn. Like-named read-outs stand apart in the source and are kept apart here.

`CC(=O)C(C)=NO` [2,3-Butanedione 2-Monoxime]: in data set [1] (30 mM), the cell viability entry is “significantly reduced”. Besides, the anti-influenza virus effect entry with influenza virus is reported as “had an anti-influenza virus effect”.

For `CC(C)C[C@H](NC(=O)[C@H](Cc1ccccc1)NC(=O)c1cnccn1)B(O)O` [Bortezomib], in the data set on A549 cells [2], the cytotoxicity entry is recorded as “without showing severe cytotoxicity”. The “virus titer reduced by a common logarithmic value” with influenza virus (0.2 μM, A549 cells, MOI 0.001, 48 hours) turned out to be 4 common logarithmic value.

Turning to `C=C1[C@@H]2CC[C@H]3[C@]4(C)C[C@H](O[C@@H]5O[C@H](CO)[C@@H](OS(=O)(=O)O)[C@H](OS(=O)(=O)O)[C@H]5OC(=O)CC(C)C)CC(C(=O)O)(C(=O)O)[C@H]4CC[C@]3(C2)[C@H]1O` [Carboxyatractyloside], the Ki in [3] was less than 0.01 µM.

As to `COc1cc2c(c(OC)c1OC)-c1ccc(OC)c(=O)cc1[C@@H](NC(C)=O)CC2` [Colchicine], the cytotoxicity entry in the data set on A549 cells [4] was “without showing severe cytotoxicity”. For the same compound, the “virus titer reduced by a common logarithmic value” with influenza virus turned out to be 2 common logarithmic value.

Regarding `N#C/C(=C\c1ccc(O)c(O)c1)C(=O)NCc1ccccc1` [Compound J4, (E)-N-benzyl-2-cyano-3-(3,4-dihydroxyphenyl)acrylamide], the CC50 at 48 h in data set [5] is 2690 µM.

With `O=C(Nc1c[nH]nc1-c1nc2cc(CN3CCOCC3)ccc2[nH]1)NC1CC1` [Compound J7, 1-cyclopropyl-3-(3-(5-(morpholinomethyl)-1H-benzo[d]imidazol-2-yl)-1H-pyrazol-4-yl) urea], the CC50 at 48 h in [5] is more than 316 µM.

For the compound `N#CCNC(=O)c1ccc(-c2ccnc(Nc3ccc(N4CCOCC4)cc3)n2)cc1` [Compound J8, N-(cyanomethyl)-4-(2-(4-morpholinophenylamino)pyrimidin-4-yl)benzamide], the CC50 at 48 h in data set [6] (HEK293 cells) is more than 316 µM.

`CN1CCN(c2cccc(Nc3nc4c(-c5ccc(S(C)(=O)=O)cc5)cccn4n3)c2)CC1` [Compound J11]: the “CC50 (50% cytotoxicity concentration)” value with HEK293 cells was >5.5 log10, nM.

`Fc1cc(-c2cccc3ncc(-c4cnn(C5CCNCC5)c4)nc23)cc(F)c1CN1CCOCC1` [Compound J13, 8-(3,5-difluoro-4-(morpholinomethyl)phenyl)-2-(1-(piperidin-4-yl)-1H-pyrazol-4-yl)qui noxaline]: the CC50 at 48 h in data set [6] (HEK293 cells) was 20.9 µM.

On to `CC(C)N(CCC(=O)c1ccc2ccccc2c1)Cc1ccccc1` [Compound J15, 1-propanone, 3-[(1-methylethyl)(phenylmethyl)amino]-1-(2-naphthalenyl)-, hydrochloride (1:1)], for which the CC50 at 48 h in [6] (HEK293 cells) is 47.9 µM.

Regarding `O=C(Nc1nc2cccc(-c3ccc(CN4CCS(=O)(=O)CC4)cc3)n2n1)C1CC1` [Compound J19, N-[5-[4-[(1,1-dioxido-4-thiomorpholinyl)methyl]phenyl][1,2,4]triazolo[1,5-a]pyridin-2-yl]cyclopropanccarboxamidc], the CC50 at 48 h in data set [5], in data set [6] (HEK293 cells) and in data set [7] was more than 316 µM each time.

In the case of `COc1cc2ncnc(Nc3ccc(O)cc3)c2cc1OC` [Compound J20, 4-[(6,7-dimethoxy-4-quinazolinyl)amino]-phenol], the CC50 at 48 h in data set [6] (HEK293 cells) is more than 316 µM.

In the case of `Cl.Cl.Fc1cc(-c2cccc3ncc(-c4cnn(C5CCNCC5)c4)nc23)cc(F)c1CN1CCOCC1` [Compound J21, 4-[[2,6-difluoro-4-[3-(1-piperidin-4-ylpyrazol-4-yl)quinoxalin-5-yl]phenyl]methyl]morpholine; dihydrochloride], the CC50 at 48 h in data set [6] was 38.9 µM.

Take `CN1C/C=C/CCOc2cccc(c2)-c2ccnc(n2)Nc2cccc(c2)C1` [Compound J23, 20-oxa-5,7,14,27-tetraazatetracyclo[19.3.1.12,6.18, 12]heptacosa-1(25),2,4,6(27),8,10,12(26),16,21,23-decane,14-methyl-]: the CC50 at 48 h in data set [5] was 35.5 µM; in data set [6] (HEK293 cells) it was 52.5 µM; in [7], 7.94 µM.

Turning to `CCC[C@H](NC(=O)/C(C#N)=C/c1cccc(Br)n1)c1ccccc1` [Compound J25, (2E)-3-(6-bromo-2-pyridinyl)-2-cyano-N-[1S-phenylbutyl]-2-propenamide], the “CC50 (50% cytotoxicity concentration)” value with HEK293 cells was 3.69 log10, nM. For the same compound, the cell viability entry in [1] (50 μM) is given as “significantly reduced”. The anti-influenza virus effect result in the data set with influenza virus is “had an anti-influenza virus effect”.

`O=c1c(-c2ccc(O)cc2)coc2cc(O)cc(O)c12` [Genistein]: the anti-influenza virus effect entry in the data set with influenza virus was “had an anti-influenza virus effect”.

On to `Fc1cc(F)c2c(c1)C1C=CCC1C(c1cccnc1)N2` (centres unmarked) [Golgicide A], for which, in data set [1] (summary of Example 2), the “toxicity to host cells” value is recorded as “relatively low toxicity to host cells”. In the data set with influenza virus, the anti-influenza virus effect result is recorded as “had an anti-influenza virus effect” and the “effect on virus titer” value is “significantly reduced a virus titer”.

Turning to `O=C1/C(=C/c2ccc(O)c(Br)c2)CCC/C1=C\c1ccc(O)c(Br)c1` [Histone acetyltransferase inhibitor II], the anti-influenza virus effect result in the data set with influenza virus is “had an anti-influenza virus effect”.

The term Ki denotes the equilibrium dissociation constant of an inhibitor or competing ligand from its target.
